Each block holds one compound with its values, some of them ahead of it.
Tests used:
[1] = target: T1, succinate dehydrogenase (SDH) (Rattus norvegicus, UniProt P21913+Q641Z9+Q6PCT8+Q920L2); assay: SDH activity (succinate:CoQ1 oxidoreductase / succinate respiration) in BAT mitochondria; format: biochemical
T1 construct: from tissue; host or cells: mitochondria isolated from rat interscapular brown adipose tissue
Procedure: We used interscapular brown adipose tissue (BAT) of four-week-old Wistar rats kept at 22°C under 12 h/12 h light/dark cycle on a standard diet and water supply ad libitum. All animal works were approved by the institutional ethics committee and were in accordance with the EU Directive 2010/63/EU for animal experiments. Mitochondria were isolated in STE medium (250 mM sucrose, 10 mM Tris–HCl, 1 mM EDTA, pH 7.4) and supplemented with BSA (10 mg/mL) by differential centrifugation. Quality of isolation was routinely checked by oxygraph, and fresh mitochondria were used for measurements of oxygen consumption and hydrogen peroxide production. […]
(§1) Activities of mitochondrial dehydrogenases were determined spectrophotometrically as NADH oxidoreductases (NDH, monitored at 340 nm, ε340 = 6.22 mM^−1·cm^−1) or CoQ1 oxidoreductases (SDH and mGPDH, monitored at 275 nm, ε275 = 13.6 mM^−1·cm^−1). […] The reaction was started by adding 100 μM NADH, 25 mM glycerophosphate (GP), or 25 mM succinate, respectively, and after 5–10 minutes, changes of absorbance were monitored at 30°C. Enzyme activities were expressed as pmol/s/mg protein.
Oxygen consumption was measured at 30°C as described before using Oxygraph-2k (Oroboros, Austria). […]

[2] = system: H2O2 (ROS) production of BAT mitochondria; assay: Fluorometric detection of hydrogen peroxide production (Amplex UltraRed) in fresh BAT mitochondria; format: biochemical, rat; conditions: for ROS production on titration, all substrates tested: metformin 0–200 mM or phenformin 0–60 mM, pattern highly similar for all substrates
Procedure: (§2) We used interscapular brown adipose tissue (BAT) of four-week-old Wistar rats kept at 22°C under 12 h/12 h light/dark cycle on a standard diet and water supply ad libitum. All animal works were approved by the institutional ethics committee and were in accordance with the EU Directive 2010/63/EU for animal experiments. Mitochondria were isolated in STE medium (250 mM sucrose, 10 mM Tris–HCl, 1 mM EDTA, pH 7.4) and supplemented with BSA (10 mg/mL) by differential centrifugation. Quality of isolation was routinely checked by oxygraph, and fresh mitochondria were used for measurements of oxygen consumption and hydrogen peroxide production. Subsequently, frozen-thawed mitochondria were used for determination of enzymatic activities; as in such preparations, the integrity of mitochondrial membrane is disrupted and NADH has therefore access to the oxidation site of NDH. Also, freezing/thawing ensures that the membrane potential is not maintained.
Hydrogen peroxide production was determined fluorometrically by measuring oxidation of Amplex UltraRed (Thermo Fisher) essentially as before. Fluorescence of the Amplex UltraRed oxidation product was measured at 37°C using Tecan Infinite M200 multiwell fluorometer. Excitation/emission wavelengths were 544 nm (bandwidth 15 nm)/590 nm (bandwidth 30 nm). The assay was performed with 10 μg of mitochondrial protein in KCl-based medium (120 mM KCl, 3 mM HEPES, 5 mM KH2PO4, 3 mM MgSO4, 1 mM EGTA, 3 mg/mL BSA, pH 7.2) supplemented either with 10 mM pyruvate plus 2 mM malate, 10 mM succinate, or 10 mM GP. Amplex UltraRed was used at the final concentration of 50 μM with horseradish peroxidase (HRP) at 1 U/mL. Fluorescence signal from the well containing all substrates and inhibitors, but not mitochondria, was subtracted as a background for every experimental condition used. Background, caused mostly by autoxidation of the dye or nonenzymatic effect of inhibitors on apparent ROS production, varied between conditions from 0 to 1 pmol/s/mg and was uniform across respective titration points. Signal was calibrated using H2O2 at the final concentration of 0–5 μM, and H2O2 stock concentration was routinely checked by measuring its absorption at 240 nm.

[3] = target: T2, mitochondrial glycerophosphate dehydrogenase (mGPDH) (Rattus norvegicus, UniProt P35571); assay: mGPDH activity (glycerophosphate:CoQ1 oxidoreductase) in BAT mitochondria; format: biochemical
T2 construct: from tissue; host or cells: mitochondria isolated from rat interscapular brown adipose tissue
T2 sequence (P35571 43-727): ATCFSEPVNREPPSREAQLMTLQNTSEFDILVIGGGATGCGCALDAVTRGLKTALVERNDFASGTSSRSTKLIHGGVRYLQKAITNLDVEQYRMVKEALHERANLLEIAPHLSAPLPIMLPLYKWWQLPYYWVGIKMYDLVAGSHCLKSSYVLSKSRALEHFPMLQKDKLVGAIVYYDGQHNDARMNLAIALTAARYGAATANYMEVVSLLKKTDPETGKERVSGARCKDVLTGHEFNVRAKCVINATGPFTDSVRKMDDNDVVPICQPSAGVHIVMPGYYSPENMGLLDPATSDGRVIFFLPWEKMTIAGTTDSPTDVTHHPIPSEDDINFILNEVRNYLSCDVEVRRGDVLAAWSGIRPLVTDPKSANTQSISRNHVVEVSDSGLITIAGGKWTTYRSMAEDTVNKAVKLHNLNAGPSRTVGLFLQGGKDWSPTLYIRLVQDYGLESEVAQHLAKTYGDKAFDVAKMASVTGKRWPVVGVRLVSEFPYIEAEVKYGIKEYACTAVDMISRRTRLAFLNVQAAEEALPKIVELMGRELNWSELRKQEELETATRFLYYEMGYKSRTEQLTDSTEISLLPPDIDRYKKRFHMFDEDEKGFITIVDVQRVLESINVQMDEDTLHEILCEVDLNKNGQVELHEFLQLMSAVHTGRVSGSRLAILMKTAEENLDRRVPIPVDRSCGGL
Procedure: as §2, with “Also, freezing/thawing ensures that the membrane potential is not maintained.” left out
as §1

[4] = system: NADH dehydrogenase (complex I, NDH); assay: NDH enzyme activity (NADH oxidoreductase) in BAT mitochondria; format: biochemical, rat
Procedure: as §2, with “Also, freezing/thawing ensures that the membrane potential is not maintained.” left out
as §1

[5] = target: respiratory chain dehydrogenases NDH, SDH, and mGPDH; assay: Enzyme activity assays of mitochondrial dehydrogenases in frozen-thawed BAT mitochondria (spectrophotometry); format: biochemical, rat; conditions: isolated BAT mitochondria, range over all three enzymes, read-out: IC50, inhibition of respiratory chain dehydrogenase enzyme activities (NDH, SDH, mGPDH)
Procedure: as §2, with “Also, freezing/thawing ensures that the membrane potential is not maintained.” left out
as §1

[6] = reported values; cited from earlier work
[7] = system: respiration of BAT mitochondria (pyruvate plus malate, succinate, glycerophosphate); assay: Polarographic oxygen consumption of isolated BAT mitochondria with substrates of NDH, SDH and mGPDH; format: biochemical, rat; conditions: at the same concentrations as enzyme inhibition (IC50 80 to 180 mM)
Procedure: as §2
(§3) Oxygen consumption was measured at 30°C as described before using Oxygraph-2k (Oroboros, Austria). Measurements were performed in 2 mL of KCl medium (80 mM KCl, 10 mM Tris–HCl, 3 mM MgCl2, 1 mM EDTA, 5 mM K-Pi, pH 7.4) using 15–60 μg protein/mL of freshly isolated mitochondria. For measurements, 10 mM pyruvate plus 2 mM malate, 10 mM succinate, or 10 mM GP, respectively, were used. The oxygen consumption was expressed in pmol oxygen/s/mg protein.

treated patients = conditions: cited from earlier work
[8] = system: pyruvate plus malate-supported oxygen consumption (NDH); assay: Pyruvate plus malate-supported oxygen consumption of BAT mitochondria; format: biochemical, rat
Procedure: as §2, §3

T1 sequence (Q920L2 35-656): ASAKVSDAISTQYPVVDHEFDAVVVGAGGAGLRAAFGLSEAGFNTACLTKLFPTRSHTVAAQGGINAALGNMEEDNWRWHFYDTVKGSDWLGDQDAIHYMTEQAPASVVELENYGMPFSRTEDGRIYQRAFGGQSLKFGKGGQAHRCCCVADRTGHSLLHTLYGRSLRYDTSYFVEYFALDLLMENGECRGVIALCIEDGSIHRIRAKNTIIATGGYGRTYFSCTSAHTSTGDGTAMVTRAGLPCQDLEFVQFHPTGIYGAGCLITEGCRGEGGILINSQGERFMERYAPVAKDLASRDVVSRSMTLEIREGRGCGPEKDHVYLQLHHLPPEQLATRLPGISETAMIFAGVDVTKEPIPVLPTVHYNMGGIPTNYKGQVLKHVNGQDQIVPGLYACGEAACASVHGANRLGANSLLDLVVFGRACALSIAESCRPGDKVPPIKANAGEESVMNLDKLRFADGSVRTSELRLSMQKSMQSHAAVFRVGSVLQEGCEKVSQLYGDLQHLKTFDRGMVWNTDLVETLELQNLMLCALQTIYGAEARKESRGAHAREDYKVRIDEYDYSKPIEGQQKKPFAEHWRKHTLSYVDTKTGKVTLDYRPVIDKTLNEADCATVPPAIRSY
T1 sequence (P21913 31-282): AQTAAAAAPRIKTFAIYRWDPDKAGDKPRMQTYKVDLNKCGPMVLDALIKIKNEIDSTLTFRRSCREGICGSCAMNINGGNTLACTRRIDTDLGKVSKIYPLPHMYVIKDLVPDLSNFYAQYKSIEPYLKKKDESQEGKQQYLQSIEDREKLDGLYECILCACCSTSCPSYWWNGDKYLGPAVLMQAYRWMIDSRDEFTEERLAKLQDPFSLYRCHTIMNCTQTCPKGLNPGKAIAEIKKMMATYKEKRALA
T1 sequence (Q641Z9 30-169 limits assumed): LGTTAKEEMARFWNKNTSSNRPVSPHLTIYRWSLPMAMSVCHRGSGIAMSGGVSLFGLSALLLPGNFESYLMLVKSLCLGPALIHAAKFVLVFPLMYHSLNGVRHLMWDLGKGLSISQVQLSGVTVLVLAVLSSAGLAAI
T1 sequence (Q6PCT8 57-159): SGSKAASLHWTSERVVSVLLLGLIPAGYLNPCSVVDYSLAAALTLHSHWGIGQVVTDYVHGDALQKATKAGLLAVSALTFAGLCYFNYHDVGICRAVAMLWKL

SMILES: COc1[nH]c(=O)c(C(=O)[C@@H](C)C[C@H](C)[C@@H](Cl)CCl)c(O)c1OC [atpenin A5]
Concentration of complete inhibition of SDH ([1]; succinate as a substrate): 20 nM
ROS production with low levels of succinate ([2]; 0.4 mM succinate, 0.5 μM atpenin A5): pronounced increase in ROS production

Concentration at which activity of mGPDH was abolished [3]: 50 µM
IC50 ([1]; enzyme activity and oxygen consumption, 10 mM succinate (Figures 4(b) and 4(d)), read-out: IC50, nonspecific action on SDH): ~80 µM
SMILES: O=C(O)CCC(=O)Nc1ccc(-c2nc3ccccc3[nH]2)cc1 [iGP-1]
GP-dependent ROS production ([2]; 10 mM glycerophosphate, 100 μM iGP-1): inhibited

IC50 [5]: > 80 mM
SMILES: CN(C)C(=N)N=C(N)N [metformin, dimethyl biguanide]
Sensitivity of NDH activity to inhibitory action relative to SDH and mGPDH ([4]; metformin titration 0–200 mM, 100 μM NADH): most sensitive
Concentration inside tumors [6]: 1 to 10 µM
Effect on respiration with pyruvate and malate, succinate and glycerophosphate [7]: inhibited respiration
ROS production on titration, all substrates tested [2]: dose-dependent increase in ROS production

SMILES: [H]/N=C(/N)N/C(=N/[H])NCCc1ccccc1 [phenformin]
Adverse effect leading to discontinued use (treated patients): induction of lactic acidosis
ROS production on titration, all substrates tested [2]: dose-dependent increase in ROS production

SMILES: C=C(C)[C@H]1Cc2c(ccc3c2O[C@@H]2COc4cc(OC)c(OC)cc4[C@@H]2C3=O)O1 [rotenone]
Concentration of complete inhibition of complex I enzyme activity ([4]; BAT mitochondria): 500 nM
Concentration of complete inhibition of pyruvate plus malate-supported oxygen consumption [8]: 500 nM
Rate of H2O2 production with NADH-linked substrates ([2]; 10 mM pyruvate and 2 mM malate, 1 μM rotenone): increased the rate of H2O2 production

— PMC5569935, “Pleiotropic Effects of Biguanides on Mitochondrial Reactive Oxygen Species Production” (Oxidative Medicine and Cellular Longevity, 2017)
